Experiments:
TRIM25 PRYSPRY [1] = target: T1, TRIM25 PRYSPRY (Homo sapiens, UniProt Q14258); assay: Intact protein LCMS covalent labelling of recombinant TRIM25 PRYSPRY; assay type: binding; settings: 4 °C, 24 h
T1 construct: His6-TEV (cleaved yes); made in house; host or cells: Sf9 insect cells (baculovirus)
Description: 1 resin (ThermoFisher Scientific, 89964), eluted in 100 mM HEPES pH 7, 500 mM NaCl,
2 300 mM Imidazole, 5% glycerol, 1 mM TCEP, and stored at -80 °C.
5 into a pET49 vector with a His6-HRV-3C (Human Rhinovirus) tag and expressed in
6 BL21 E.coli cells (Agilent Technologies; 230132), with induction at 18 °C overnight by
7 addition of isopropyl β-D-1-thiogalactopyranoside (0.5 mM). Cells were harvested by
8 centrifugation at 4000 rpm in a Beckman J6-M1 rotor for 30 min at 4 °C, the
9 supernatant was discarded and cell pellets were either immediately lysed, or stored at
10 -80°C. The protein was purified via His6-capture on HisPurTM Ni-NTA resin in buffer
11 50 mM HEPES pH 7.5, 300 mM NaCl, 0.5 mM TCEP, 20 mM imidazole, washed
12 extensively with both high salt buffer (50 mM HEPES pH 7.5, 1 M NaCl, 0.5 mM TCEP,
13 20 mM imidazole) and wash buffer (50 mM HEPES pH 7.5, 300 mM NaCl, 0.5 mM
14 TCEP, 20 mM imidazole) before elution in buffer 50 mM HEPES pH 7.5, 300 mM NaCl,
15 0.5 mM TCEP, 500 mM imidazole, and tag cleavage with HRV-3C protease. Cleaved
16 protein was further purified by ion exchange chromatography and size exclusion
17 chromatography into 20 mM HEPES pH 7.5, 150 mM NaCl, 0.5 mM TCEP, and stored
21 For the original chloroacetamide fragment screen, 0.25 μM TRIM25 PRYSPRY or
23 25 mM HEPES pH 7.5, 50 mM NaCl buffer. For intact protein liquid chromatography
24 mass spectrometry (LCMS) kinetic characterisation, 0.5 μM TRIM25 PRYSPRY was
25 used. For selectivity testing with recombinant ubiquitin system protein panel, 10 µM
27 7.5, 50 mM NaCl buffer. Samples were then diluted to 0.5 µM for TRIM25 PRYSPRY,
28 TRIM21 PRYSPRY, OTUD7B OTU, ZRANB1 OTU or 1 µM for TRIM2 NHL, UBCH5B,
29 UBC13K92A, UEV1A, OTUD4 OTU, before injection into the LCMS. For TRIM25
30 PRYSPRY mutants, and for labelling of heterobifunctional compounds, 10 µM protein
32 mM NaCl buffer, and samples were diluted to 1 µM protein before injection into the […]

TRIM25 PRYSPRY [2] = target: T1, TRIM25 PRYSPRY; assay: Kinetic characterisation of covalent labelling by intact protein LCMS (kinact/KI); assay type: binding; settings: TRIM25 PRYSPRY 0.5 μM, 4 °C
Description: 8 were characterised by kinetic reaction monitoring by intact protein LCMS. 0.5 µM
10 dilution series (final compound concentrations 100 µM (only for fragments 1 – 8),
12 and 1% DMSO-only control also used). Assays were performed in technical duplicates
Protein and compounds were incubated at 4 °C, in 25 mM HEPES
15 pH 7.5, 50 mM NaCl buffer, with each timepoint and replicate in a separate well.
18 measurement were saved with each reading and used for kinetic calculations.
19 protein masses were recorded, deconvoluted and percentage labelling values
20 extracted in the same way as described above. Percentage labelling values were
21 plotted against time in Prism 10 (GraphPad), and curves fitted separately for each
22 replicate to a one-phase association model with constraints Y0 = 0, and plateau = 100.
23 Observed rate constants (k obs, h-1, generated in Prism 10 as K values) were then
26 of two or three replicates to a straight line model with constraint Y-intercept = 0.
27 gradient of these plots (converted from µM-1h-1 to M-1s-1) gives the pseudo-first order
28 rate parameter, kinact/K I (M-1s-1), for each compound. kinact/KI values are reported as
29 mean ± SD of the slope based on a linear fit model, n = 2 or 3. For n = 2 data, errors
30 are reported as standard errors of fit, as calculated in Prism 10. For n = 3 data, errors […]

[3] = buffer; cited from earlier work
[4] = fragment screen: fragment 50 μM, TRIM25 PRYSPRY […]

T1 sequence (Q14258 435-630): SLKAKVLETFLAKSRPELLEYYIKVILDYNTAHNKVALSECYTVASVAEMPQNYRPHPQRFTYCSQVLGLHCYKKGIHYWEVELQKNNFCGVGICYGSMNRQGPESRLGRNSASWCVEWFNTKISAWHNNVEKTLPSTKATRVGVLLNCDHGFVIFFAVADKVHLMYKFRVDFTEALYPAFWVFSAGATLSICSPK

Compound: CCN1C(=O)C2CN(C(=O)CCl)CCN2C1=O (stereo not shown) [Fragment 2]
- TRIM25 PRYSPRY labelling (%) (TRIM25 PRYSPRY [1]; [4]): 50%

Compound: N#Cc1cnccc1NC(=O)C1CCCN(C(=O)CCl)C1 (stereo not shown) [Compound 12]
- kinact/KI (TRIM25 PRYSPRY [2]; purified compounds, mean ± SD, n = 3): 0.26 ± 0.01 M⁻¹ s⁻¹
- TRIM25 PRYSPRY labelling (%) (TRIM25 PRYSPRY [1]; purified compound 50 μM, TRIM25 PRYSPRY 10 μM): 51%

Compound: O=C(CCl)N1CCCN(C(=O)c2ccc(Cl)cc2)CC1 [Fragment 1]
- TRIM25 PRYSPRY labelling (%) (TRIM25 PRYSPRY [1]; [4]): 55%

Compound: NC(=O)C1CCCCN1C(=O)CCl (stereo not shown) [Fragment 3]
- kinact/KI (TRIM25 PRYSPRY [2]; eight timepoints across 24 h, n = 2, mean ± SE of fit): 0.13 ± 0.01 M⁻¹ s⁻¹
- TRIM25 PRYSPRY labelling (%) (TRIM25 PRYSPRY [1]; [4]): 39%

Compound: C=CC(=O)Nc1cc(Nc2nccc(-c3cn(C)c4ccccc34)n2)c(OC)cc1N(C)CCN(C)C [osimertinib]
- GSH t1/2 [3]: 1.3 h

Source: article PMC12067093, “Discovery and optimisation of a covalent ligand for TRIM25 and its application to targeted protein ubiquitination” (Chemical Science, 2025)
